Reference: ChEMBL document CHEMBL1135425, “Antitumor agents. 213. Modeling of epipodophyllotoxin derivatives using variable selection k nearest neighbor QSAR method” (J Med Chem, 2002)

Target: DNA topoisomerase II (Homo sapiens) (UniProt P11388+Q02880)
Experiment: Percentage of intracellular covalent DNA-topoisomerase II complexes formed
Assay type: cell-based

Complex formation [%] | SMILES
34 | COc1cc([C@@H]2c3cc4c(cc3[C@@H](Oc3ccc(O)cc3)[C@H]3COC(=O)[C@H]23)OCO4)cc(OC)c1O
36.4 | COc1cc([C@@H]2c3cc4c(cc3[C@@H](N)[C@H]3COC(=O)[C@H]23)OCO4)cc(OC)c1O
140 | COc1cc([C@@H]2c3cc4c(cc3[C@@H](Nc3ccc(N5CCOCC5)cc3)[C@H]3COC(=O)[C@H]23)OCO4)cc(OC)c1O
57 | COc1cc([C@@H]2c3cc4c(cc3[C@@H](Oc3ccc(F)cc3)[C@H]3COC(=O)[C@H]23)OCO4)cc(OC)c1O
69 | COc1ccc(NC2c3cc4c(cc3[C@@H](c3cc(O)c(O)c(OC)c3)[C@H]3C(=O)OC[C@H]23)OCO4)cc1OC (some centres not stated)
69.7 | CCCN[C@@H]1c2cc3c(cc2[C@@H](c2cc(OC)c(O)c(OC)c2)[C@H]2C(=O)OC[C@@H]21)OCO3
140 | COc1cc([C@@H]2c3cc4c(cc3[C@@H](Nc3cccc(N)c3)[C@H]3COC(=O)[C@H]23)OCO4)cc(OC)c1O
50 | COC(=O)c1cc(N[C@@H]2c3cc4c(cc3[C@@H](c3cc(OC)c(O)c(OC)c3)[C@H]3C(=O)OC[C@@H]32)OCO4)cc(C(=O)OC)c1
162 | COc1cc([C@@H]2c3cc4c(cc3[C@@H](N[C@H](C)CO)[C@H]3COC(=O)[C@H]23)OCO4)cc(OC)c1O
116 | COc1cc([C@@H]2c3cc4c(cc3[C@@H](NC(=O)c3cccc(F)c3)[C@H]3COC(=O)[C@H]23)OCO4)cc(OC)c1O
180 | COc1ccc(N[C@@H]2c3cc4c(cc3[C@@H](c3cc(OC)c(O)c(OC)c3)[C@H]3C(=O)OC[C@@H]32)OCO4)cc1OC
83 | COc1cc([C@@H]2c3cc4c(cc3C(Nc3ccc(O)cc3)[C@H]3COC(=O)[C@H]23)OCO4)cc(O)c1O (some centres not stated)

The remaining lines, values behind:

SMILES | Complex formation [%]
COC1=CC([C@@H]2c3cc4c(cc3C(NC(=O)N(C)N=O)[C@H]3COC(=O)[C@H]23)OCO4)=CC(=O)C1=O (some centres not stated) | 41
COc1cc([C@@H]2c3cc4c(cc3[C@@H](NCc3cccc(C#N)c3)[C@H]3COC(=O)[C@H]23)OCO4)cc(OC)c1O | 225
COc1cc([C@@H]2c3cc4c(cc3[C@@H](Nc3ccc(N)cc3)[C@H]3COC(=O)[C@H]23)OCO4)cc(OC)c1O | 330
COc1cc([C@@H]2c3cc(O)c(O)cc3C(Nc3ccc(F)cc3)[C@H]3COC(=O)[C@H]23)cc(OC)c1O (some centres not stated) | 52
CCOC(=O)c1ccc(NC2c3cc(O)c(O)cc3[C@@H](c3cc(OC)c(OC)c(OC)c3)[C@H]3C(=O)OC[C@H]23)cc1 (some centres not stated) | 22
COc1cc([C@@H]2c3cc4c(cc3[C@@H](NCc3ccccc3)[C@H]3COC(=O)[C@H]23)OCO4)cc(OC)c1O | 181
COc1cc2c(cc1OC)[C@@H](c1cc(OC)c(O)c(OC)c1)[C@H]1C(=O)OC[C@@H]1C2Nc1ccc(F)cc1 (some centres not stated) | 108
COC1=CC([C@@H]2c3cc4c(cc3C(NC(=O)N(CCCl)N=O)[C@H]3COC(=O)[C@H]23)OCO4)=CC(=O)C1=O (some centres not stated) | 7
COc1cc(CN[C@@H]2c3cc4c(cc3[C@@H](c3cc(OC)c(O)c(OC)c3)[C@H]3C(=O)OC[C@@H]32)OCO4)cc(OC)c1 | 144
COc1cc([C@@H]2c3cc4c(cc3C(Nc3ccc(C#N)cc3)[C@H]3COC(=O)[C@H]23)OCO4)cc(O)c1O (some centres not stated) | 146
COc1cc2c(cc1OC)[C@@H](c1cc(OC)c(OC)c(OC)c1)[C@H]1C(=O)OC[C@@H]1C2Nc1ccc(C#N)cc1 (some centres not stated) | 12
CCOC(=O)CC[C@H](NC(=O)c1ccc(N[C@@H]2c3cc4c(cc3[C@@H](c3cc(OC)c(O)c(OC)c3)[C@H]3C(=O)OC[C@@H]32)OCO4)cc1)C(=O)OCC | 83
COc1cc([C@@H]2c3cc4c(cc3[C@@H](O)[C@H]3COC(=O)[C@H]23)OCO4)cc(OC)c1O | 42.2
COc1cccc(N[C@@H]2c3cc4c(cc3[C@@H](c3cc(OC)c(O)c(OC)c3)[C@H]3C(=O)OC[C@@H]32)OCO4)c1 | 104
COc1cc([C@@H]2c3cc(O)c(O)cc3C(Nc3ccc(F)cc3)[C@H]3COC(=O)[C@H]23)cc(OC)c1OC (some centres not stated) | 11
